Active and inactive are the calls of the source. No cut-off for these calls is given here.
Test system: Raji
Assay: Cytotoxicity against human Raji cells at 25 to 50 ug/mL after 3 days by MTT assay
Type: functional, cell-based

Row | Compound | Activity
1 | CCCCC/C=C/C/C=C/CCCCCCCC(=O)OC[C@H]1O[C@@H](O[C@H]2CC[C@@]3(C)C(=CC[C@H]4[C@@H]5CC[C@H]([C@H](C)CC[C@H](CC)C(C)C)[C@@]5(C)CC[C@@H]43)C2)[C@H](O)[C@@H](O)[C@@H]1O | Active
2 | CCCCCCCCCCCCCCCCCC(=O)OC[C@H]1O[C@@H](O[C@H]2CC[C@@]3(C)C(=CC[C@H]4[C@@H]5CC[C@H]([C@H](C)CC[C@H](CC)C(C)C)[C@@]5(C)CC[C@@H]43)C2)[C@H](O)[C@@H](O)[C@@H]1O | Active
3 | CCCCCCCCCCCCCCCC(=O)OC[C@H]1O[C@@H](O[C@H]2CC[C@@]3(C)C(=CC[C@H]4[C@@H]5CC[C@H]([C@H](C)CC[C@H](CC)C(C)C)[C@@]5(C)CC[C@@H]43)C2)[C@H](O)[C@@H](O)[C@@H]1O | Active

From ChEMBL document CHEMBL1155738, “Suppressors of cancer cell proliferation from fig (Ficus carica) resin: isolation and structure elucidation” (J Nat Prod, 2001)
